Data published in patent US20130189764A1, “SELECTIVE GROWTH MEDIA” (Oxide Limited, priority 2000, published 2013).
≈ marks a conversion by molar mass, not a printed value.

Assays:
Type in all cases: cell-based
[1] = tested on: Citrobacter freundii, Enterobacter aerogenes, Enterobacter cloacae; assay: Bioscreen growth in Lab-Lemco broth (Example 9A), other strains; details: 128 μg/ml, Lab-Lemco broth pH 6.0, 37° C., other strains tested
Description: (§1) […] […] Plates were then covered, incubated at 37° C., and the opacity of the organism suspensions measured using a Bioscreen instrument (a semi-automated microbiological growth analyser, available from Thermolabsystems, Ashford, Middlesex, U.K.).
(§2) The results are shown in FIG. 13, which is a graph of optical density against time (in hours). The optical density readings were taken in “wide band” (wb) mode, i.e. using white light without any filter.

[2] = tested on: Salmonella virchow OCC703; assay: MIC from Bioscreen growth curves in various media (Example 13)
Description: (§3) In general, media containing a higher concentration of short chain peptides, for example hydrolysed casein, reduced the effectiveness of the inhibitor. Thus, Pyr-AEP was dissolved in deionised water (51.2 mg/ml), filter sterilised, and amounts of the solution added to autoclaved Bacteriological Peptone, Casein Hydrolysate, Lab-Lemco broth and Proteose Peptone (20 g/l; pH 7.3) to give a dilution series of 1,477, 739, 369, 185 μg/ml. Volumes ([…]) of these solutions were then pipetted into the wells of Bioscreen microtitre plates and 30 μl quantities of 1 in 10,000 dilutions of overnight cultures of Citrobacter freundii OCC 261, Enterobacter aerogenes OCC 720, Salmonella enteritidis OCC 723 and Salmonella virchow OCC 703 added. Plates were then covered, incubated at 37° C., and the opacity of the organism suspensions, measured using a Bioscreen instrument.

[3] = tested on: Enterobacter aerogenes OCC720; assay: as above
Description: as §3

[4] = tested on: Citrobacter freundii OCC261; assay: as above
Description: as §3

[5] = tested on: Salmonella enteritidis OCC723; assay: as above
Description: as §3

[6] = tested on: Salmonella typhimurium and Salmonella worthington; assay: Bioscreen growth in Lab-Lemco broth (Example 9A), Salmonella strains; details: 128 μg/ml, Lab-Lemco broth pH 6.0, 37° C.
Description: as §1, §2

[7] = tested on: Citrobacter freundii OCC 370; assay: mixed culture viable count in Nutrient Broth No. 2 (Example 9B); details: 128 μg/ml, Nutrient Broth No. 2, mixed culture with Salmonella, 37° C.
Description: (§4) L-Pyroglutamyl-L-aminoethylphosphonate was added to Oxoid Nutrient Broth No. 2 (final concentration=128 μg/ml) contained in a universal tube in a water bath at 37° C. Citrobacter freundii OCC 370 and Salmonella typhimurium OCC 626 were grown overnight in Nutrient Broth No. 2 at 37° C., diluted 1 in 1000 in Maximal Recovery Diluent and amounts added to the Nutrient Broth to give final concentrations of about 10^4 cfu/ml of each organism. At intervals samples were taken and spread on XLD and the number of red colonies with black centres enumerated as Salmonella and yellow ones as Citrobacter.
(§5) The results are shown in FIG. 14, which is a graph of Log10 viable count (cfu/ml) against time (in hours). The plots for C. freundii are shown by lozenge symbols, whist those for S. typhimurium are shown by squares. Filled symbols and solid lines show results in the presence of Pyr-AEP, empty symbols and dotted lines show results in the absence of Pyr-AEP.

[8] = tested on: Salmonella typhimurium OCC 626; assay: as above; details: 128 μg/ml, Nutrient Broth No. 2, mixed culture with Citrobacter, 37° C.
Description: as §4, §5

C[C@H](NC(=O)[C@@H]1CCC(=O)N1)P(=O)(O)O [Pyr-AEP, L-pyroglutamyl-L-1-aminoethylphosphonic acid]
growth (optical density) in presence of the agent [1]: inhibited | Minimum inhibitory concentration ([2]; Salmonella virchow OCC703, Bacteriological Peptone): 671 µg/mL (≈ 2.84 mM) | Minimum inhibitory concentration ([2]; Salmonella virchow OCC703, Casein Hydrolysate): >1343 µg/mL | Minimum inhibitory concentration ([2]; Salmonella virchow OCC703, Lab-Lemco): 1343 µg/mL (≈ 5.69 mM) | Minimum inhibitory concentration ([2]; Salmonella virchow OCC703, Proteose Peptone): 1343 µg/mL (≈ 5.69 mM) | Minimum inhibitory concentration ([3]; Enterobacter aerogenes OCC720, Bacteriological Peptone): 671 µg/mL (≈ 2.84 mM) | Minimum inhibitory concentration ([3]; Enterobacter aerogenes OCC720, Casein Hydrolysate): >1343 µg/mL | Minimum inhibitory concentration ([3]; Enterobacter aerogenes OCC720, Lab-Lemco): 336 µg/mL (≈ 1.42 mM) | Minimum inhibitory concentration ([3]; Enterobacter aerogenes OCC720, Proteose Peptone): >1343 µg/mL | Minimum inhibitory concentration ([4]; Citrobacter freundii OCC261, Bacteriological Peptone): 168 µg/mL (≈ 0.711 mM) | Minimum inhibitory concentration ([4]; Citrobacter freundii OCC261, Casein Hydrolysate): >1343 µg/mL | Minimum inhibitory concentration ([4]; Citrobacter freundii OCC261, Lab-Lemco): 168 µg/mL (≈ 0.711 mM) | Minimum inhibitory concentration ([4]; Citrobacter freundii OCC261, Proteose Peptone): 1343 µg/mL (≈ 5.69 mM) | Minimum inhibitory concentration ([5]; Salmonella enteritidis OCC723, Bacteriological Peptone): 671 µg/mL (≈ 2.84 mM) | Minimum inhibitory concentration ([5]; Salmonella enteritidis OCC723, Casein Hydrolysate): >1343 µg/mL | Minimum inhibitory concentration ([5]; Salmonella enteritidis OCC723, Lab-Lemco): 1343 µg/mL (≈ 5.69 mM) | Minimum inhibitory concentration ([5]; Salmonella enteritidis OCC723, Proteose Peptone): 1343 µg/mL (≈ 5.69 mM) | growth (optical density) in presence of the agent [6]: not inhibited | effect on growth (Log10 viable count) [7]: completely inhibitory | effect on growth (Log10 viable count) [8]: no significant effect
